Data reported in the supplement of paper PMC10307832.

How the values were obtained:
Assay in all cases: relative viability (nuclei count vs DMSO), 5 days (fraction); higher = more cells survive
RU-SKI 43 + Crizotinib = compound: CC[C@@H](C)CNCC(=O)N1CCC2=C([C@@H]1COC3=CC=CC(=C3)C)C=CS2 [RU-SKI 43] + C[C@@H](Oc1cc(-c2cnn(C3CCNCC3)c2)cnc1N)c1c(Cl)ccc(F)c1Cl [Crizotinib] (partner 1 µM)
Outline: (§1)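 Lung cancer cell lines were seeded in 1536-well plates and dosed by pin tool the next day, with either a single drug or a fixed anchor-drug dose combined with five library-drug doses (not always all listed) spaced in √10 steps. Five days later, one step fixed the cells and stained their nuclei (final 0.05% Triton X-100, 1% formaldehyde, 1 ug/ml Hoechst), and nuclei were counted on 4× images. Relative viability is the nuclei count in treated wells divided by the count in vehicle wells, and each value is the median of duplicate plates.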

MK-8033 + Vorinostat = compound: Cn1cc(-c2cnc3ccc4ccc(CS(=O)(=O)NCc5ccccn5)cc4c(=O)c3c2)cn1 [MK-8033] + O=C(CCCCCCC(=O)Nc1ccccc1)NO [Vorinostat] (partner 1 µM)
Outline: as §1

Irinotecan + Palbociclib = compound: CCc1c2c(nc3ccc(OC(=O)N4CCC(N5CCCCC5)CC4)cc13)-c1cc3c(c(=O)n1C2)COC(=O)[C@]3(O)CC [Irinotecan] + CC(=O)c1c(C)c2cnc(Nc3ccc(N4CCNCC4)cn3)nc2n(C2CCCC2)c1=O [Palbociclib] (partner 0.5 µM)
Outline: as §1

Cell Line	relative viability (RU-SKI 43 + Crizotinib; first compound 0.1 µM)	relative viability (RU-SKI 43 + Crizotinib; first compound 0.3162 µM)	relative viability (RU-SKI 43 + Crizotinib; first compound 1 µM)	relative viability (RU-SKI 43 + Crizotinib; first compound 3.162 µM)	relative viability (RU-SKI 43 + Crizotinib; first compound 10 µM)	relative viability (MK-8033 + Vorinostat; first compound 0.02 µM)	relative viability (MK-8033 + Vorinostat; first compound 0.06325 µM)	relative viability (MK-8033 + Vorinostat; first compound 0.2 µM)	relative viability (MK-8033 + Vorinostat; first compound 0.6325 µM)	relative viability (MK-8033 + Vorinostat; first compound 2 µM)	relative viability (Irinotecan + Palbociclib; first compound 2 µM)	relative viability (Irinotecan + Palbociclib; first compound 6.325 µM)	relative viability (Irinotecan + Palbociclib; first compound 20 µM)	relative viability (Irinotecan + Palbociclib; first compound 0.6325 µM)
NCI-H1734	0.724	0.709	0.745	0.652	0.547	0.874	0.639	0.698	0.836	0.758	0.256	0.193	0.373	
NCI-H1650	0.968	0.916	0.971	0.991	0.67	0.507	0.416	0.723	0.532	0.562	0.305	0.285	0.101	0.184
NCI-H2170	1.26	1.42	1.49	1.22	1.07	0.802	0.882	0.691	0.768	0.79	0.248	0.159	0.143	0.356
NCI-H1975	1.04	1.3	1.12	0.925	0.709	0.713	0.669	0.634	0.695	0.752	0.557	0.314	0.219	0.304
NCI-H1437	0.873	1.29	1.11	0.93	0.875	0.703	0.801	0.732	0.899	0.769	0.337	0.301	0.258	0.319
A-427	0.832	0.809	0.904		0.651	0.886	0.826	0.819	0.908	0.881	0.487	0.292	0.132	0.499
NCI-H2405	0.863	0.933	0.811	0.852	0.807	1.1	0.988	0.9	1.06	1.04	0.547	0.305	0.143	
SK-MES-1	0.862	1.07	1.06	1.09	0.98	1.2	0.987	1.03	1.04	1.03	0.342	0.291	0.175	0.354
LC-2-ad	0.443	0.392	0.535		0.43	0.786	0.651	0.618	0.75	0.659	0.371	0.316	0.251	0.407
NCI-H1944	1.17	1.19	1.25	1.25	0.991	0.6	0.579	0.625	0.59	0.568	0.173	0.179	0.17	0.227
NCI-H322M	1.19	1.04	0.941	0.979	0.733	1.04	0.774	0.829	0.966	0.888	0.502	0.458	0.336	0.527
HCC-44	0.778	0.785	0.846	0.796	0.806	1.06	1.14	1.09	1.2	1.07	0.631	0.484	0.532	0.841
HCC-827	0.956	1.01	0.987	0.916	0.602	1.1		0.8	0.907	0.959	0.304	0.167	0.206	0.438
SW 1573	1	0.767	0.799	0.768	0.723	0.836	0.681	0.7	0.729	0.667	0.329	0.181	0.101	
NCI-H23	0.472	0.42	0.451	0.598	0.39	0.678	0.455	0.405		0.587	0.332	0.249	0.254	0.446
EMC-BAC-2	0.789	0.793	0.811	0.828	0.751	0.619	0.346	0.421	0.454	0.476	0.346	0.337	0.248	0.387
EPLC-272H	0.981	0.964	1.01		0.812	0.434	0.332	0.38	0.422	0.551	0.22	0.304	0.264	
EKVX	0.902	1.01	0.926	0.987	0.713	0.484	0.72	0.734	0.746	0.66	0.311	0.265	0.227	
HCC-15	0.806	1.01	0.962	0.873	0.807	0.898	0.767	0.752	0.738	0.798	0.346	0.182	0.141	0.41
LXF-289	0.815	0.784	0.806	0.83	0.736	0.843	0.615	0.737	0.755	0.812	0.279	0.251	0.23	0.527
LK-2	0.206	0.219	0.256		0.199	0.245	0.259	0.397	0.307	0.357	0.72	0.227	0.245	0.594
NCI-H2126	1.01	1.24	1.06	1.06	1.01	0.671	0.554	0.72	0.798	0.822	0.242	0.323	0.381	0.342
NCI-H3122	0.256	0.257	0.249	0.287	0.244	0.834	1.3	0.879	1.14	1.01	0.114	0.16	0.126	0.155
NCI-H727	0.688	0.975	0.796	0.872	0.7	1.2	0.981	1.11	1.16	1.13	0.412	0.52	0.653	0.665
NCI-H1355	1.07	1.14	1.17	1.26	1.01	0.62	0.549	0.62	0.658	0.592	0.393	0.215	0.206	
NCI-H661	0.887	0.943	0.984	0.942	0.938	0.785	0.71	0.793	0.761	0.767	0.435	0.457	0.142	0.397
